For this assay, the system named is standardized full-thickness bone defect (diameter: about 9 mm) in the calvarium. Put plainly: Test Example 1: rat calvarium bone defect, OCP/Col or β-TCP/Col implant + teriparatide subcutaneous injection. The format is in vivo, Male Wistar rats. The text has this:
Male Wistar rats (12 weeks old) were each intraperitoneally anesthetized, and a skin incision and a periosteal incision were made in the calvarium part to expose the calvarium. A standardized full-thickness bone defect (diameter: about 9 mm), for which spontaneous recovery could not be expected, was created. Then, one disc-shaped OCP/Col produced in Production Example 2 or one disc-shaped β-TCP/Col produced in Production Example 3 was implanted therein. As the control, rats in which only a bone defect was created, and no sample was implanted (untreated group) were prepared. After the sample was implanted, the periosteum and skin were sutured, and the surgery was completed. […] In the rats of the teriparatide subcutaneous injection group, 10 μg/kg of the teriparatide prepared in Production Example 5 was subcutaneously injected immediately after surgery and every day thereafter. Subcutaneous injection was performed in such a manner that the thawed teriparatide solution was sucked by a 1-mL syringe (27G injection needle), the back skin was sterilized with a dilute Hibitane solution, and then a considerable amount of teriparatide solution was injected subcutaneously in the back. The observation period after surgery was 8 weeks for each group, and 5 rats were used in each period.
Four weeks and eight weeks after surgery, tomography was carried out on the rats in the living state using an X-ray CT scanner for experimental animals (Latheta LCT-200, produced by Hitachi Aloka Medical, Ltd.) at a low X-ray tube voltage, and the state of new bone formation in the bone defect site was carefully examined. Similarly, after CT photography 8 weeks after surgery, the rats were euthanized under anesthesia with an excess amount of pentobarbital. The calvarium and surrounding tissue were taken, and immersed and fixed in 0.1 M phosphate-buffered 4% paraformaldehyde (pH 7.4). The extracted samples were photographed (20 kV, 5 mA) with a soft X-ray camera (CMBW-2, produced by Softex Co., Ltd.), and then decalcified with 10% EDTA to prepare paraffin samples. Then, tissue sections (thickness: 6 μm) cut in the frontal plane were prepared, and a histological search was performed by hematoxylin-eosin staining. Further, using the multiple tissue sections corresponding to the center of the defect of each sample, the ratio of new bone (n-Bone %) in the created defect was examined by histological quantification. Variance analysis, etc., were conducted using the average value and standard deviation of n-Bone % in each group, and a significance test was conducted. The significance level was set at 5%.

[1] abbreviates: 8 weeks after surgery, hematoxylin-eosin, PTH(+) = teriparatide 10 μg/kg s.c. every day, PTH(−) = none.

For the compound `CC[C@H](C)[C@H](NC(=O)[C@H](CCC(=O)O)NC(=O)[C@H](CO)NC(=O)[C@@H](NC(=O)[C@@H](N)CO)C(C)C)C(=O)N[C@@H](CCC(N)=O)C(=O)N[C@@H](CC(C)C)C(=O)N[C@@H](CCSC)C(=O)N[C@@H](Cc1cnc[nH]1)C(=O)N[C@@H](CC(N)=O)C(=O)N[C@@H](CC(C)C)C(=O)NCC(=O)N[C@@H](CCCCN)C(=O)N[C@@H](Cc1cnc[nH]1)C(=O)N[C@@H](CC(C)C)C(=O)N[C@@H](CC(N)=O)C(=O)N[C@@H](CO)C(=O)N[C@@H](CCSC)C(=O)N[C@@H](CCC(=O)O)C(=O)N[C@@H](CCCN=C(N)N)C(=O)N[C@H](C(=O)N[C@@H](CCC(=O)O)C(=O)N[C@@H](Cc1c[nH]c2ccccc12)C(=O)N[C@@H](CC(C)C)C(=O)N[C@@H](CCCN=C(N)N)C(=O)N[C@@H](CCCCN)C(=O)N[C@@H](CCCCN)C(=O)N[C@@H](CC(C)C)C(=O)N[C@@H](CCC(N)=O)C(=O)N[C@@H](CC(=O)O)C(=O)N[C@H](C(=O)N[C@@H](Cc1cnc[nH]1)C(=O)N[C@@H](CC(N)=O)C(=O)N[C@@H](Cc1ccccc1)C(=O)O)C(C)C)C(C)C` [teriparatide], where the note is “8 weeks after surgery, PTH(+) = teriparatide 10 μg/kg s.c. every day”, the “X-ray photographs of isolated bone defect sites (FIG. 1)” value is “radiopaque images in the defects were equally scarce”. For the same compound, under setting [1], the “stained pathological specimens, high-magnification images (FIG. 4)” value is “thin new bone extended from the defect margins”; the “stained pathological specimens, low-magnification (×1.25) images (FIG. 3)” value is “thin bone tissue extending from the defect margins (▾) and connective tissue surrounding the bone tissue”. The “ratio of new bone (n-Bone %) in the defect” value (8 weeks after surgery, histological quantification (FIG. 5), PTH(+) = teriparatide 10 μg/kg subcutaneously every day, PTH(−) = no injection, average ± standard deviation) is reported as 31.1±10.2%. For the same compound, the “X-ray photographs (cross sections) of calvarium shot with the rats alive (FIG. 2)” value (PTH(+) = teriparatide 10 μg/kg s.c. every day) is reported as “radiopaque images extending from the defect margins (∇) were observed; however, their thickness was less than that of the existing bone”. Besides, for the setting “teriparatide 10 μg/kg s.c. every day, 8 weeks”, the “new bone formation (conclusion from FIGS. 1 to 5)” value was “new bone formation was not observed”.

For the origin of these results see patent US20190151418A1, “COMBINATION OF CALCIUM-PHOSPHATE-CONTAINING POROUS COMPOSITE AND PTH” (TOYOBO CO., LTD., priority 2016, published 2019).
